Data published in patent EP1087941B9, “THIOLESTERS AND USES THEREOF” (THE UNITED STATES OF AMERICA, as represented by THE …, priority 1998, dated 1999).
Read-outs that look alike come from different tables or passages of the source.

Columns and labels:
[1] = test system: U1 cells; experiment: Cell viability of TNFα-induced U1 cells; format: cell-based; settings: for cellular toxicity: high test dose of 100 µM; for toxicity: higher dose testing (300 µM)
Protocol: (§1) Thiolester compounds were also tested for their ability to inhibit HIV-1 replication in TNFα-induced U1 and ACH-2 cells. U1 cells were induced with 5 ng/ml of TNFα in the presence of various concentrations of the thiolesters 44, 45 or 47. Forty-eight hours later the cultures were characterized for virus p24 antigen production and cell viability. […] Compound 44 killed 60% of the cells at 200 µM. […] Precursor processing evaluation performed as described by Turpin (1997) Antiviral Chem. Chemother. 8:60-69. Thus, thiolester PATEs initiate intracellular disulfide cross-linking of precursor polyproteins during late phase virus assembly and mediate a direct virucidal effect via an attack on the mature NCp7 retroviral zinc fingers in the cell-free virus.

[2] = test system: fusion of the HL2/3 and MAGI-CCR-5 cells; experiment: Fusion assay, HL2/3 and MAGI-CCR-5 co-culture with beta-galactosidase reporter; format: cell-based; settings: for IC50: Table 7, read-out: Fusion I50
Protocol: Determination of the effect of the test compounds on viral fusion were carried out as follows. Briefly, HL2/3 cells stably expressing HIV-1 Tat and cell surface gp120 and MAGI-CCR-5 cells stably expressing CD4 and CCR5 on their cell surface, containing a β-galactosidase reporter gene under the control of the HIV-1 LTR were pretreated with test compound for 1 h at 37°C. After incubation, the cells were mixed in a 4 to 1 ratio (2 x 10^5 MAGI-CCR-5 to 8 x 10^5 HL2/3 cells) and co-cultured for 18 h at 37°C; cultures were fixed and stained with X-gal solution for β-galactosidase activity. Blue cells represented the Tat transactivation of the HIV-1 LTR upon fusion of the HL2/3 and MAGI-CCR-5 cells via the CD4/CCR5 co-receptor gp 120 interaction.

[3] = target: T1, recombinant HIV-1 protease (Human immunodeficiency virus type 1 group M subtype B, UniProt P03366); experiment: HPLC-based protease substrate cleavage assay; format: biochemical; settings: for IC50: Table 7, high dose test of 100 µM, read-out: Protease I50
T1 construct: Substrate cleavage of recombinant HIV-1 protease
Protocol: (§2) The 5-bromovaleroyl thioester, compound 44, and two 5-pyridiniovaleroyl thioesters, compounds 45 and 47, were analyzed in mechanistic and target-based assays. […] Assays for activity against HIV-1 reverse transcriptase rAdT (template/primer) and rCdG (template/primer) using recombinant HIV-1 reverse transcriptase (S. Hughes, ABL Basic Research NCI-FCRDC, Frederick MD) were performed as described by Rice (1997) supra. Substrate cleavage of recombinant HIV-1 protease in the presence of test compounds using an HPLC-based methodology with the artificial substrate Ala-Ser-Glu-Asn-Try- Pro-Ile-Val-amide (Multiple Peptide Systems, San Diego CA) was performed as described by Rice (1997) supra. The ability of recombinant HIV-1 integrase (S. Hughes, ABL Basic Research NCI-FCRDC, Frederick MD) to carry out 3' processing and strand transfer activities in the presence of test compounds was performed as described by Buckheit (1994) AIDS Res. Hum. Retroviruses 10:1497-1506, and Turpin (1998) Antimicrob. Agents Chemother. 42: 487-494.

[4] = target: T2, recombinant HIV-1 NCp7 protein (Human immunodeficiency virus type 1 group M subtype B, UniProt P03347); experiment: Trp37 zinc finger fluorescence (zinc ejection) assay; format: biochemical; parameters: Zinc Finger Reactivity, percent total decrease in flourescence / Zinc Finger Reactivity % Decrease: concentration or dose not given beside the values; settings: for zinc finger reactivity in the presence of glutathione: 2 molar excess of glutathione; for Zinc Finger Reactivity, decrease in relative fluorescence units per 30 min. / Zinc Finger Reactivity, percent total decrease in flourescence: Table 7; for Zinc Finger Reactivity, percent total decrease in flourescence: value in parenthesis; for percent decrease in total Trp37 fluorescence (zinc ejection) at 2000 µM: 30 min incubation, read-out: Zinc Finger Reactivity % Decrease; for Zinc Finger Reactivity % Decrease: total percent decrease during a 30 min incubation; for zinc finger reactivity: result in words
T2 construct: within the nucleocapsid p7 (NCp7) protein portion of the polyprotein
Protocol: Zinc finger reactivity was measured using a Zn specific fluorochrome, TSQ, N-(6-methoxy-8-quinolyl) -p-toluenesulfonamide, assay or a Trp37 zinc finger fluorescence assay. Fluorescent measurements of the Trp37 residue in the C-terminal finger of recombinant HIV-1 NCp7 protein were performed as described by Rice (1995) Science 270:1194-1197; Rice (1997) Antimicrob. Agents Chemother. 41:419-426. Measurement of Zn ejection from both fingers was measured using the Zn-selective fluorchrome probe TSQ (Molecular Probes, Eugene OR) as described by Rice (1996) J. Med. Chem 39:3606-3616. Measurement of the ability of NCp7 to bind to a DNA oligomer, a 44 mer: […] (SEQ ID NO:1), analogous to the HIV-1 RNA packaging site was carried out as described by Huang (1998) J. Med. Chem. 41:1371-1381, see also, Rossio (1998) HIV Pathogenesis and Treatment: Keystone Symposium on Molecular and Cellular Biology, Abstract # 4082. Briefly, 50 nM NCp7 was treated with test compounds for 1 hour at RT in […] buffer containing 10% glycerol and 50 mM Tris-HCl (pH 7.5). Labeled oligomer (0.1 picomole, end labeled [^32P]) was added in an equal volume of buffer containing 10% glycerol, 50 mM Tris-HCl (pH 7.5), 400 mM KCl and 40 mM MgCl2. The reaction was continued for 15 min at room temperature, and a total of […] (or 1/4 of the total reaction volume) was separated on nondenaturing 4.5% polyacrylamide gels in 0.5X Tris-Borate electrophoresis buffer. NCp7-oligomer complexes were visualized by autoradiography.
Changes in the intrinsic fluorescence of aromatic protein moieties are commonly used to monitor a reaction which involves a change in protein conformation. In the present invention, fluorescence can be used to monitor the loss of metal ion from a zinc finger, e.g., the loss of zinc from a CCHC retroviral zinc finger protein, after contact with a thiolester of the invention. The intrinsic fluorescence of Trp 37 in the second zinc finger of HIV-1 NC protein has been used to monitor nucleic acid binding and conformation of the zinc finger complex (see, Summers (1992) supra).
Zinc ejection is measured by the ability of compounds to chemically attack the cysteines in purified NCp7 protein resulting in a loss of fluorescence due to the movement of the tryptophan 37 residue from an exposed to an internal position on the protein. Zinc ejection is measured and expressed as either percent decrease in total fluorescence or decrease in relative fluorescence units per min during a 30 min assay (RFU/min). A thiolester is considered within the scope of the invention if any amount of zinc ejection is detected. For example, compound 50 has a zinc ejection rate of 0.86 RFU/min.

[5] = target: T3, recombinant HIV-1 reverse transcriptase (Human immunodeficiency virus type 1 group M subtype B, UniProt P03366); experiment: Reverse transcriptase assay with rAdT and rCdG template/primer; format: biochemical; settings: for IC50: Table 7, high dose test of 100 µM
T3 construct: using recombinant HIV-1 reverse transcriptase; S. Hughes, ABL Basic Research NCI-FCRDC, Frederick MD (supplied, not a catalogue product)
Protocol: as §2

[6] = test system: HIV-1 replication in TNFα-induced U1; experiment: Inhibition of p24 release from TNFα-induced U1 cells; format: cell-based
Protocol: as §1

[7] = Table 5, average decrease in relative fluorescence units over 30 min
[8] = Table 6, average decrease in relative fluorescence units over 30 min
[9] = Table 8, GSH +: compounds (2 mM) treated 2 h at 37°C with 4 mM reduced glutathione
[10] = rAdT template/primer, read-out: Reverse transcriptase rAdT I50
[11] = rCdG template/primer, read-out: Reverse transcriptase rCdG I50
[12] = Human immunodeficiency virus 1, 5 ng/ml TNFα, 48 hours, read-out: inhibition of release of HIV-1 virions (p24) from U1 cells, EC50
[13] = Human immunodeficiency virus 1, Table 9, read-out: U1 Inhibition of p24 (EC50 µM)

Compound | cellular toxicity [1] | inhibition of fusion to host cells [2] | IC50 [2] | inhibition of HIV-1 protease enzyme activity [3] | IC50 [3] | zinc finger reactivity in the presence of glutathione [4] | Zinc Finger Reactivity RFU/ min [4, 7] | Zinc Finger Reactivity RFU/ min [4, 8] | Zinc Finger Reactivity, decrease in relative fluorescence units per 30 min. [4] | Zinc Finger Reactivity, percent total decrease in flourescence [4] | Zinc Finger Reactivity RFU/ min [4, 9] | percent decrease in total Trp37 fluorescence (zinc ejection) at 2000 µM [4, 9] | Zinc Finger Reactivity RFU/ min ([4]; Table 8, GSH -) | Zinc Finger Reactivity % Decrease ([4]; Table 8, GSH -) | zinc finger reactivity [4] | inhibition of HIV-1 reverse transcriptase enzyme activity [5] | IC50 [5, 10] | IC50 [5, 11] | EC50 [6, 12] | EC50 [6, 13] | also measured
CC(=O)NS(=O)(=O)c1ccc(NC(=O)c2ccccc2SC(=O)CCCCBr)cc1 [Compound 44, N-[2-(5-bromovaleroylthio)benzoyl]sulfacetamide] | No cellular toxicity was evident | did not inhibit | > 100 µM | did not inhibit | > 100 µM | maintained the capacity to attack the cysteine thiols | 1.8 RFU/ min | 1.8 RFU/ min | 1.8 RFU/30 MIN | 13.3% | 2.4 RFU/min | 28% | 6.5 RFU/min | 60.1% | promoted metal ion (zinc) ejection | did not inhibit | > 100 µM | > 100 µM | 94 µM | 94 µM | cells killed ([1]; at 200 µM): 60%
CC(=O)NS(=O)(=O)c1ccc(NC(=O)c2ccccc2SC(=O)CCCC[n+]2ccccc2)cc1 [Compound 45, N-[2-(5-pyridinio-valeroylthio)benzoyl]sulfacetamide bromide] | No cellular toxicity was evident | did not inhibit | 77 µM | did not inhibit | > 100 µM | maintained the capacity to attack the cysteine thiols | 3.6 RFU/ min | 3.6 RFU/ min | 3.6 RFU/30 MIN | 34.7% | 3.8 RFU/min | 36.9% | 2.6 RFU/min | 28.2% | promoted metal ion (zinc) ejection | did not inhibit | > 100 µM | > 100 µM | 42.2 µM | 42.2 µM | toxicity [1]: no toxicity; zinc finger reactivity / zinc ejection rate [4]: 3.6 RFU/min; Zinc Finger Reactivity RFU/ min ([4]; Table 10, average decrease in relative fluorescence units over 30 min): 3.6 RFU/ min
O=C(CCCC[n+]1ccccc1)Sc1ccccc1C(=O)Nc1ccc(S(=O)(=O)c2ccc([N+](=O)[O-])cc2)cc1 [Compound 47] | No cellular toxicity was evident | did not inhibit | 99 µM | did not inhibit | – | maintained the capacity to attack the cysteine thiols | – | 4.1 RFU/ min | 4.1 RFU/30 MIN | 17.9% | 1.6 RFU/min | 21.1% | 1.6 RFU/min | 24.3% | promoted metal ion (zinc) ejection | did not inhibit | – | – | – | – | toxicity [1]: no toxicity; EC50 ([6]; Human immunodeficiency virus 1, 48 h, read-out: inhibition of release of HIV-1 virions (p24) from U1 cells, EC50): 10.7 µM; EC50 ([6]; Human immunodeficiency virus 1, read-out: U1 Inhibition of p24 (EC50 µM)): 10.7 µM
